Laboratory results: patent publication US9611267B2, “Substituted tricyclic compounds as FGFR inhibitors” (Incyte Corporation, priority 2012, dated 2017)

What was measured:
Type in all cases: biochemical
[1] = target: FGFR1 (Homo sapiens (Human), UniProt P11362); assay: FGFR enzymatic assay (FRET peptide phosphorylation), FGFR1; conditions: FGFR1 enzyme 0.02 nM, ATP 210 μM
Method: (§1) The inhibitor potency of the exemplified compounds was measured in an enzyme assay that measures peptide phosphorylation using FRET measurements to detect product formation. Inhibitors were serially diluted in DMSO and a volume of 0.5 μL was transferred to the wells of a 384-well plate. For FGFR3, a 10 μL volume of FGFR3 enzyme (Millipore) diluted in assay buffer (50 mM HEPES, 10 mM MgCl2, 1 mM EGTA, 0.01% Tween-20, 5 mM DTT, pH 7.5) was added to the plate and pre-incubated for 5-10 minutes. Appropriate controls (enzyme blank and enzyme with no inhibitor) were included on the plate. […] The plate was incubated at 25° C. for 1 hr. […] The plate was allowed to equilibrate for ˜1 hr before scanning the wells on a PheraStar plate reader (BMG Labtech).
(§2) The enzymes were purchased from Millipore or Invitrogen.
(§3) GraphPad prism3 was used to analyze the data. The IC50 values were derived by fitting the data to the equation for a sigmoidal dose-response with a variable slope. Y=Bottom+(Top−Bottom)/(1+10^((LogIC50−X)*HillSlope)) where X is the logarithm of concentration and Y is the response.

[2] = target: FGFR3 (Homo sapiens (Human), UniProt P22607); assay: FGFR enzymatic assay (FRET peptide phosphorylation), FGFR3; conditions: FGFR3 enzyme (Millipore), ATP 140 μM
Method: as §1, §3

[3] = target: FGFR2 (Homo sapiens (Human), UniProt P21802); assay: FGFR enzymatic assay (FRET peptide phosphorylation), FGFR2; conditions: FGFR2 enzyme 0.01 nM, ATP 100 μM
Method: as §1, §2, §3

Sequence of FGFR3 (P22607 23-806): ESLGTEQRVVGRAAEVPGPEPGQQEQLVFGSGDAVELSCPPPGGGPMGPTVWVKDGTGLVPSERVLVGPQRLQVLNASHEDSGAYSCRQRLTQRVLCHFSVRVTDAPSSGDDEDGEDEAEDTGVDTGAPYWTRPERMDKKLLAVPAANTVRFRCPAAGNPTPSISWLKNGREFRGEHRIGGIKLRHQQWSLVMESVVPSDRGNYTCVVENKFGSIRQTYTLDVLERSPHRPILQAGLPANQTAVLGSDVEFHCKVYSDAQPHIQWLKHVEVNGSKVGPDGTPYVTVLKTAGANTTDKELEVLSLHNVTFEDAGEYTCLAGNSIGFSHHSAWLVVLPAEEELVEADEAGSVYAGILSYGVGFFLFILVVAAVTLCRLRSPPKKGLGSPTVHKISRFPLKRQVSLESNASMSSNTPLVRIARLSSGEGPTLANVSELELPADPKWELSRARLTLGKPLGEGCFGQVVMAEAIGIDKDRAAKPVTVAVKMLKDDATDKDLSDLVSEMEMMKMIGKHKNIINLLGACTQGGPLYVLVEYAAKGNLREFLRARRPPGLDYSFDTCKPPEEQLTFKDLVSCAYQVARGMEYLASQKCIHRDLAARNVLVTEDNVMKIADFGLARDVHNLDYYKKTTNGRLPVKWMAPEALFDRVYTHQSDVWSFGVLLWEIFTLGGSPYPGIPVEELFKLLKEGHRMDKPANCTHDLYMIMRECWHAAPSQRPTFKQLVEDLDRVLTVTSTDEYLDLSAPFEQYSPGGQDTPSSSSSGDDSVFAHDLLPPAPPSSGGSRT
Sequence of FGFR2 (P21802 22-821): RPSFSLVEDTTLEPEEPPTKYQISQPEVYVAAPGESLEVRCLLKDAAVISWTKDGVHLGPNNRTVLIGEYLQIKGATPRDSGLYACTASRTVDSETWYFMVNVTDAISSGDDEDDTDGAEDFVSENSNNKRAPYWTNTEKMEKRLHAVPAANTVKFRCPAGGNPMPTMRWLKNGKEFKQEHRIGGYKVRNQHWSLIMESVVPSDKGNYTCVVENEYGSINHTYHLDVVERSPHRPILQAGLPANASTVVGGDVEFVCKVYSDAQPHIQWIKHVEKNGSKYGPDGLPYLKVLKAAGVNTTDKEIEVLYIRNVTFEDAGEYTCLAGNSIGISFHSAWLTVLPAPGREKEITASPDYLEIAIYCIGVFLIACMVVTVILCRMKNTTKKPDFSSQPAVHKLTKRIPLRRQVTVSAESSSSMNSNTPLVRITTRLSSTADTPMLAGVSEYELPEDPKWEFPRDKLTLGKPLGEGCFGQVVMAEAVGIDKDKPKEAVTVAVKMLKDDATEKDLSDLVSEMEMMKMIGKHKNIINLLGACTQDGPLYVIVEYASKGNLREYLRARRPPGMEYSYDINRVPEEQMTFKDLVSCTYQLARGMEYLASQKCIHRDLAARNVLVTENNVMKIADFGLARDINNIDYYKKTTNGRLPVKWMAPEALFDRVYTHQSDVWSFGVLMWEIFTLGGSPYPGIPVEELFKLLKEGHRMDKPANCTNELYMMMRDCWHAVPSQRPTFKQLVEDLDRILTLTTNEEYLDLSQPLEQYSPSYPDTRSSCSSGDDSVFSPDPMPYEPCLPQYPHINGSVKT
Sequence of FGFR1 (P11362 22-822): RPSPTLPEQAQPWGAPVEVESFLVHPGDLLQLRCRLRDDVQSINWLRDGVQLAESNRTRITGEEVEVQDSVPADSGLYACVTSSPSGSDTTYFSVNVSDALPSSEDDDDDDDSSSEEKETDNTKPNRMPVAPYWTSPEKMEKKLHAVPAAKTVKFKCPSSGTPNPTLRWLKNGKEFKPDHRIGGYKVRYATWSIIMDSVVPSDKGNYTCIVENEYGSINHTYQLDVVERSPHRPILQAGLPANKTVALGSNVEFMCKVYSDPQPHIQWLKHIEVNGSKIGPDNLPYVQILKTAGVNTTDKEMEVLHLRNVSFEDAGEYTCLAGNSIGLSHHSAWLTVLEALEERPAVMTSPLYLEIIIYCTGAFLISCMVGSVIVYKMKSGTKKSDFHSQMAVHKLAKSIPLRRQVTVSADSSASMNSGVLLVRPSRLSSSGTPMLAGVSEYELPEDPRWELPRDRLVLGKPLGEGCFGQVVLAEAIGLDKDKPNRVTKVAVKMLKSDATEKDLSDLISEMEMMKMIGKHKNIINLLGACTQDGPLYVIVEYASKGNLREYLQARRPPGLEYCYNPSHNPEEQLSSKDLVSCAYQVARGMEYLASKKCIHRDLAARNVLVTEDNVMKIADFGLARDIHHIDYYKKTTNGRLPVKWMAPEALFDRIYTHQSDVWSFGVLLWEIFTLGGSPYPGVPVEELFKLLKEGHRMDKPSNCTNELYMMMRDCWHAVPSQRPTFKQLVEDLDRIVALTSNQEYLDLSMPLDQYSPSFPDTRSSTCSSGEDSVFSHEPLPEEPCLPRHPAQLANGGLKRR

Compound | IC50 [1] | IC50 [2] | IC50 [3]
COc1cc(OC)c(F)c(N2Cc3cnc4[nH]ncc4c3N(c3cnn(C)c3)C2=O)c1F [Example 85, 3-(2,6-difluoro-3,5-dimethoxyphenyl)-1-(1-methyl-1H-pyrazol-4-yl)-1,3,4,7-tetrahydro-2H-pyrazolo[4′,3′:5,6]pyrido[4,3-d]pyrimidin-2-one] | < 100 nM | < 100 nM | < 100 nM
COc1cc(OC)c(Cl)c(N2Cc3cnc4[nH]c(-c5cnn(CCO)c5)cc4c3N(C)C2=O)c1 [Example 14, 3-(2-Chloro-3,5-dimethoxyphenyl)-8-[1-(2-hydroxyethyl)-1H-pyrazol-4-yl]-1-methyl-1,3,4,7-tetrahydro-2H-pyrrolo[3′,2′:5,6]pyrido[4,3-d]pyrimidin-2-one] | < 100 nM | < 100 nM | < 100 nM
COc1cc(OC)c(F)c(N2Cc3cnc4c(c3N(C3CCC3)C2=O)CC(=O)N4)c1F [Example 64, 1-cyclobutyl-3-(2,6-difluoro-3,5-dimethoxyphenyl)-3,4,7,9-tetrahydro-1H-pyrrolo[3′,2′:5,6]pyrido[4,3-d]pyrimidine-2,8-dione] | < 100 nM | < 100 nM | < 100 nM
COc1cc(OC)c(F)c(N2Cc3cnc4[nH]c(CN5CCN(CCC#N)CC5)cc4c3N(C)C2=O)c1F [Example 131, 3-(4-{[3-(2,6-difluoro-3,5-dimethoxyphenyl)-1-methyl-2-oxo-2,3,4,7-tetrahydro-1H-pyrrolo[3′,2′:5,6]pyrido[4,3-d]pyrimidin-8-yl]methyl}piperazin-1-yl)propanenitrile] | < 100 nM | < 100 nM | < 100 nM
COc1cc(OC)c(F)c(N2Cc3cnc4[nH]ncc4c3N(C(C)C)C2=O)c1F [Example 91, 3-(2,6-difluoro-3,5-dimethoxyphenyl)-1-isopropyl-1,3,4,7-tetrahydro-2H-pyrazolo[4′,3′:5,6]pyrido[4,3-d]pyrimidin-2-one] | < 100 nM | < 100 nM | < 100 nM
COc1cc(OC)c(F)c(N2Cc3cnc4[nH]c(C(=O)N5CCC(F)(F)CC5)cc4c3N(C)C2=O)c1F [Example 42, 3-(2,6-Difluoro-3,5-dimethoxyphenyl)-8-[(4,4-difluoropiperidin-1-yl)carbonyl]-1-methyl-1,3,4,7-tetrahydro-2H-pyrrolo[3′,2′:5,6]pyrido[4,3-d]pyrimidin-2-one] | < 100 nM | < 100 nM | < 100 nM
COc1cc(OC)c(F)c(N2Cc3cnc4[nH]ccc4c3N(C3CCOCC3)C2=O)c1F [Example 46, 3-(2,6-Difluoro-3,5-dimethoxyphenyl)-1-(tetrahydro-2H-pyran-4-yl)-1,3,4,7-tetrahydro-2H-pyrrolo[3′,2′:5,6]pyrido[4,3-d]pyrimidin-2-one] | < 100 nM | < 100 nM | < 100 nM
COc1cc(OC)c(F)c(N2Cc3cnc4[nH]cnc4c3N(C)C2=O)c1F [Example 61, 7-(2,6-difluoro-3,5-dimethoxyphenyl)-9-methyl-3,6,7,9-tetrahydro-8H-imidazo[4′,5′:5,6]pyrido[4,3-d]pyrimidin-8-one] | < 100 nM | < 100 nM | < 100 nM
COc1cc(OC)c(F)c(N2Cc3cnc4[nH]ncc4c3OC2=O)c1F [Example 62, 3-(2,6-difluoro-3,5-dimethoxyphenyl)-4,7-dihydropyrazolo[4′,3′:5,6]pyrido[3,4-e][1,3]oxazin-2(3H)-one] | 100 to 500 nM | < 100 nM | 100 to 500 nM
COc1cc(OC)c(F)c(N2Cc3cnc4[nH]ccc4c3N(c3ccccc3)C2=O)c1F [Example 47, 3-(2,6-difluoro-3,5-dimethoxyphenyl)-1-phenyl-1,3,4,7-tetrahydro-2H-pyrrolo[3′,2′:5,6]pyrido[4,3-d]pyrimidin-2-one] | < 100 nM | < 100 nM | < 100 nM
COc1cc(OC)cc(N2Cc3cnc4[nH]ccc4c3N(Cc3ccccc3)C2=O)c1 [Example 6, 1-Benzyl-3-(3,5-dimethoxyphenyl)-1,3,4,7-tetrahydro-2H-pyrrolo[3′,2′:5,6]pyrido[4,3-d]pyrimidin-2-one] | < 100 nM | < 100 nM | < 100 nM
COc1cc(OC)c(F)c(N2Cc3cnc4c(c3N(C)C2=O)C2(CC2)C(=O)N4)c1F [Example 59, 3′-(2,6-Difluoro-3,5-dimethoxyphenyl)-1′-methyl-4′,7′-dihydrospiro[cyclopropane-1,9′-pyrrolo[3′,2′:5,6]pyrido[4,3-d]pyrimidine]-2′,8′(1′H,3′H)-dione] |  | < 100 nM | < 100 nM
COc1cc(OC)c(F)c(N2Cc3cnc4c(c3N(c3cccc(F)c3F)C2=O)CC(=O)N4)c1F [Example 77, 3-(2,6-difluoro-3,5-dimethoxyphenyl)-1-(2,3-difluorophenyl)-3,4,7,9-tetrahydro-1H-pyrrolo[3′,2′:5,6]pyrido[4,3-d]pyrimidine-2,8-dione] |  | < 100 nM | < 100 nM
COc1cc(OC)c(F)c(N2Cc3cnc4c(c3N(c3ccc(C#N)cc3)C2=O)CC(=O)N4)c1F [Example 122, 4-[3-(2,6-difluoro-3,5-dimethoxyphenyl)-2,8-dioxo-2,3,4,7,8,9-hexahydro-1H-pyrrolo[3′,2′:5,6]pyrido[4,3-d]pyrimidin-1-yl]benzonitrile] |  | < 100 nM | < 100 nM

The next lines start with the values.

IC50 [1] | IC50 [2] | IC50 [3] | Compound
< 100 nM | < 100 nM | < 100 nM | COc1cc(OC)c(F)c(N2Cc3cnc4[nH]ncc4c3N(Cc3cocn3)C2=O)c1F [Example 161, 3-(2,6-Difluoro-3,5-dimethoxyphenyl)-1-(1,3-oxazol-4-ylmethyl)-1,3,4,7-tetrahydro-2H-pyrazolo[4′,3′:5,6]pyrido[4,3-d]pyrimidin-2-one]
< 100 nM | < 100 nM | < 100 nM | COc1cc(OC)c(F)c(N2Cc3cnc4[nH]c(CNC5CCN(C)CC5)cc4c3N(C)C2=O)c1F [Example 134, 3-(2,6-difluoro-3,5-dimethoxyphenyl)-1-methyl-8-{[(1-methylpiperidin-4-yl)amino]methyl}-1,3,4,7-tetrahydro-2Hpyrrolo[3′,2′:5,6]pyrido[4,3-d]pyrimidin-2-one]
< 100 nM | < 100 nM | < 100 nM | COc1cc(OC)c(F)c(N2Cc3cnc4[nH]ncc4c3N(c3cccc(C(=O)NC(C)C)c3F)C2=O)c1F [Example 199, 3-[3-(2,6-difluoro-3,5-dimethoxyphenyl)-2-oxo-2,3,4,7-tetrahydro-1H-pyrazolo[4′,3′:5,6]pyrido[4,3-d]pyrimidin-1-yl]-2-fluoro-N-isopropylbenzamide]
< 100 nM | < 100 nM | < 100 nM | COc1cc(OC)c(F)c(N2Cc3cnc4[nH]ncc4c3N(c3ncccc3F)C2=O)c1F [Example 218, 3-(2,6-Difluoro-3,5-dimethoxyphenyl)-1-(3-fluoropyridin-2-yl)-1,3,4,7-tetrahydro-2H-pyrazolo[4′,3′:5,6]pyrido[4,3-d]pyrimidin-2-one]
< 100 nM | < 100 nM | < 100 nM | COc1cc(OC)c(F)c(N2Cc3cnc4[nH]c(CCN5CCOCC5)cc4c3N(c3ccccc3F)C2=O)c1F [Example 196, 3-(2,6-difluoro-3,5-dimethoxyphenyl)-1-(2-fluorophenyl)-8-(2-morpholin-4-ylethyl)-1,3,4,7-tetrahydro-2H-pyrrolo[3′,2′:5,6]pyrido[4,3-d]pyrimidin-2-one]
< 100 nM | < 100 nM | < 100 nM | COc1cc(OC)c(F)c(N2Cc3cnc4[nH]c(CN5CC(C#N)C5)cc4c3N(C)C2=O)c1F [Example 208, 1-{[3-(2,6-difluoro-3,5-dimethoxyphenyl)-1-methyl-2-oxo-2,3,4,7-tetrahydro-1H-pyrrolo[3′,2′:5,6]pyrido[4,3-d]pyrimidin-8-yl]methyl}azetidine-3-carbonitrile]
< 100 nM | < 100 nM | < 100 nM | COc1cc(OC)c(F)c(N2Cc3cnc4[nH]c(CCN5CCN(C)CC5)cc4c3N(c3ccc(F)cc3)C2=O)c1F [Example 226, 3-(2,6-difluoro-3,5-dimethoxyphenyl)-1-(4-fluorophenyl)-8-[2-(4-methylpiperazin-1-yl)ethyl]-1,3,4,7-tetrahydro-2H-pyrrolo[3′,2′:5,6]pyrido[4,3-d]pyrimidin-2-one]
< 100 nM | < 100 nM | < 100 nM | COc1cc(OC)c(F)c(N2Cc3cnc4[nH]nc(-c5cnn(C)c5)c4c3N(C)C2=O)c1F [Example 215, 3-(2,6-difluoro-3,5-dimethoxyphenyl)-1-methyl-9-(1-methyl-1H-pyrazol-4-yl)-1,3,4,7-tetrahydro-2H-pyrazolo[4′,3′:5,6]pyrido[4,3-d]pyrimidin-2-one]
< 100 nM | < 100 nM | < 100 nM | COc1cc(OC)c(F)c(N2Cc3cnc4[nH]c(CCN5CCOCC5)cc4c3N(c3cccc(F)c3)C2=O)c1F [Example 227, 3-(2,6-difluoro-3,5-dimethoxyphenyl)-1-(3-fluorophenyl)-8-(2-morpholin-4-ylethyl)-1,3,4,7-tetrahydro-2H-pyrrolo[3′,2′:5,6]pyrido[4,3-d]pyrimidin-2-one]
